Tested on: MV-4-11 cells
Assay: Gene expression microarray analysis (Affymetrix PrimeView) and GSEA
Format: cell-based, human
Parameters: RFU PODN (11730768_x_at) / Fold change /veh PODN (11730768_x_at) / RFU LINC00158 (11744669_a_at) / Fold change /veh LINC00158 (11744669_a_at) / RFU DUSP10 (11751237_a_at) / Fold change /veh DUSP10 (11751237_a_at) / RFU ID3 (11757404_x_at) / Fold change /veh ID3 (11757404_x_at) / RFU PLEKHG5 (11737974_s_at) / Fold change /veh PLEKHG5 (11737974_s_at) / RFU LRRC4B (11730491_at) / Fold change /veh LRRC4B (11730491_at) / RFU GIMAP4 (11747438_a_at) / Fold change /veh GIMAP4 (11747438_a_at) / RFU KRT8 (11758183_x_at) / Fold change /veh KRT8 (11758183_x_at) / RFU CNN1 (11734310_a_at) / Fold change /veh CNN1 (11734310_a_at) / RFU VPS37D (11726825_at) / Fold change /veh VPS37D (11726825_at) / RFU C10orf10 (11716522_x_at) / Fold change /veh C10orf10 (11716522_x_at) / RFU KIR2DL2 /// KIR2DL4 /// KIR2DL5A /// KIR2DL5B /// KIR2DS1 /// KIR2DS2 /// KIR2DS3 /// KIR2DS4 /// KIR3DL3 /// KIR3DL3 /// KIR3DS1 (11738374_at) / Fold change /veh KIR2DL2 /// KIR2DL4 /// KIR2DL5A /// KIR2DL5B /// KIR2DS1 /// KIR2DS2 /// KIR2DS3 /// KIR2DS4 /// KIR3DL3 /// KIR3DL3 /// KIR3DS1 (11738374_at) / RFU C1QL1 (11718748_at) / Fold change /veh C1QL1 (11718748_at) / RFU TMPRSS4 (11747572_a_at) / Fold change /veh TMPRSS4 (11747572_a_at) / RFU HAMP (11756126_x_at) / Fold change /veh HAMP (11756126_x_at) / RFU RNFT2 (11725882_a_at) / Fold change /veh RNFT2 (11725882_a_at) / RFU NR4A2 (11747474_a_at) / Fold change /veh NR4A2 (11747474_a_at) / RFU ABCC12 (11746883_a_at) / Fold change /veh ABCC12 (11746883_a_at) / RFU TMEM136 (11760407_x_at) / Fold change /veh TMEM136 (11760407_x_at) / RFU CLDN22 /// WWC2 (11732394_at) / Fold change /veh CLDN22 /// WWC2 (11732394_at) / RFU HLA-DPB1 (11760878_x_at) / Fold change /veh HLA-DPB1 (11760878_x_at) / RFU SPINT1 (11716480_a_at) / Fold change /veh SPINT1 (11716480_a_at) / RFU GAP43 (11754022_s_at) / Fold change /veh GAP43 (11754022_s_at) / RFU A4GNT (11735810_at) / Fold change /veh A4GNT (11735810_at) / RFU PRB3 (11715151_x_at) / Fold change /veh PRB3 (11715151_x_at) / RFU TUBB4B (11761932_at) / Fold change /veh TUBB4B (11761932_at) / RFU CAPN14 (11732068_a_at) / Fold change /veh CAPN14 (11732068_a_at) / RFU TMCC2 (11721928_a_at) / Fold change /veh TMCC2 (11721928_a_at) / RFU IRGQ (11745062_a_at) / Fold change /veh IRGQ (11745062_a_at) / RFU FAM174B (11720279_a_at) / Fold change /veh FAM174B (11720279_a_at) / RFU TMPRSS4 (11748680_a_at) / Fold change /veh TMPRSS4 (11748680_a_at) / RFU FAM212B (11763350_a_at) / Fold change /veh FAM212B (11763350_a_at) / RFU PLEKHG5 (11743358_a_at) / Fold change /veh PLEKHG5 (11743358_a_at) / RFU ZSCAN30 (11745921_a_at) / Fold change /veh ZSCAN30 (11745921_a_at) / RFU CMKLR1 (11741424_a_at) / Fold change /veh CMKLR1 (11741424_a_at) / RFU LOC101060620 /// MAPK8IP1 (11723275_at) / Fold change /veh LOC101060620 /// MAPK8IP1 (11723275_at) / RFU SPTSSB (11747773_x_at) / Fold change /veh SPTSSB (11747773_x_at) / RFU PRSS12 (11739890_at) / Fold change /veh PRSS12 (11739890_at) / RFU BIN1 (11741810_x_at) / Fold change /veh BIN1 (11741810_x_at) / RFU WNT11 (11732464_a_at) / Fold change /veh WNT11 (11732464_a_at) / RFU C10orf10 (11716521_a_at) / Fold change /veh C10orf10 (11716521_a_at) / RFU C5orf56 (11738089_at) / Fold change /veh C5orf56 (11738089_at) / RFU CYB561 (11721691_x_at) / Fold change /veh CYB561 (11721691_x_at) / RFU ANKRD19P (11752326_a_at) / Fold change /veh ANKRD19P (11752326_a_at) / RFU OR2T12 /// OR2T33 /// OR2T8 (11738714_s_at) / Fold change /veh OR2T12 /// OR2T33 /// OR2T8 (11738714_s_at) / RFU VCAN (11748164_a_at) / Fold change /veh VCAN (11748164_a_at) / RFU JSRP1 (11732532_at) / Fold change /veh JSRP1 (11732532_at) / RFU KRTAP10-11 (11738290_x_at) / Fold change /veh KRTAP10-11 (11738290_x_at) / RFU MYO3A (11730013_a_at) / Fold change /veh MYO3A (11730013_a_at) / RFU EBF3 (11725865_a_at) / Fold change /veh EBF3 (11725865_a_at) / RFU CAMK2N1 (11719241_x_at) / Fold change /veh CAMK2N1 (11719241_x_at) / RFU C5orf56 (11738088_a_at) / Fold change /veh C5orf56 (11738088_a_at) / RFU OLFML3 (11715873_a_at) / Fold change /veh OLFML3 (11715873_a_at) / RFU LOC100653217 /// NTM (11731650_a_at) / Fold change /veh LOC100653217 /// NTM (11731650_a_at) / RFU MAPK11 (11762145_a_at) / Fold change /veh MAPK11 (11762145_a_at) / RFU FIZ1 (11724087_x_at) / Fold change /veh FIZ1 (11724087_x_at) / RFU OASL (11726364_x_at) / Fold change /veh OASL (11726364_x_at) / RFU SOX15 (11748057_x_at) / Fold change /veh SOX15 (11748057_x_at) / RFU CD79A (11719716_a_at) / Fold change /veh CD79A (11719716_a_at) / RFU HIST1H1D (11736915_at) / Fold change /veh HIST1H1D (11736915_at) / RFU CASKIN2 (11723855_a_at) / Fold change /veh CASKIN2 (11723855_a_at) / RFU LOC730098 (11760151_x_at) / Fold change /veh LOC730098 (11760151_x_at) / RFU OR4N2 (11742367_at) / Fold change /veh OR4N2 (11742367_at) / RFU PRRT2 (11749266_a_at) / Fold change /veh PRRT2 (11749266_a_at) / RFU SNX32 (11753110_a_at) / Fold change /veh SNX32 (11753110_a_at) / RFU CDHR5 (11726645_a_at) / Fold change /veh CDHR5 (11726645_a_at) / RFU RCAN1 (11760418_a_at) / Fold change /veh RCAN1 (11760418_a_at) / RFU FAM167A (11723789_a_at) / Fold change /veh FAM167A (11723789_a_at) / RFU FAM26E (11764081_at) / Fold change /veh FAM26E (11764081_at) / RFU ISYNA1 (11749810_s_at) / Fold change /veh ISYNA1 (11749810_s_at) / RFU ACY1 (11761880_at) / Fold change /veh ACY1 (11761880_at) / RFU 11764098_at / Fold change /veh 11764098_at / RFU SAMD14 (11745864_x_at) / Fold change /veh SAMD14 (11745864_x_at) / RFU NPB (11741838_a_at) / Fold change /veh NPB (11741838_a_at) / RFU TMPRSS6 (11731388_a_at) / Fold change /veh TMPRSS6 (11731388_a_at) / RFU KRTAP10-2 (11738614_at) / Fold change /veh KRTAP10-2 (11738614_at) / RFU ARHGAP8 /// PRR5-ARHGAP8 (11727945_x_at) / Fold change /veh ARHGAP8 /// PRR5-ARHGAP8 (11727945_x_at) / RFU KRTAP5-7 /// NADSYN1 (11734609_at) / Fold change /veh KRTAP5-7 /// NADSYN1 (11734609_at) / RFU RASL12 (11751679_a_at) / Fold change /veh RASL12 (11751679_a_at) / RFU CDKN2B (11736163_a_at) / Fold change /veh CDKN2B (11736163_a_at) / RFU PRF1 (11729649_at) / Fold change /veh PRF1 (11729649_at) / RFU, ZNF638 /// ZNF638-IT1 / Fold change vs veh, ZNF638 /// ZNF638-IT1 / RFU, PANK3 / Fold change vs veh, PANK3 / RFU, SH3YL1 / Fold change vs veh, SH3YL1 / RFU, ZEB2 / Fold change vs veh, ZEB2 / RFU, NRIP1 / Fold change vs veh, NRIP1 / RFU, PTTG1IP / Fold change vs veh, PTTG1IP / RFU, CAPN2 / Fold change vs veh, CAPN2 / RFU, MED14 / Fold change vs veh, MED14 / RFU, SNORA58 / Fold change vs veh, SNORA58 / RFU, C1orf63 / Fold change vs veh, C1orf63 / RFU, LRRFIP1 / Fold change vs veh, LRRFIP1 / RFU, NDUFAF7 / Fold change vs veh, NDUFAF7 / RFU, SLC12A2 / Fold change vs veh, SLC12A2 / RFU, IBTK / Fold change vs veh, IBTK / RFU, ESF1 / Fold change vs veh, ESF1 / Fold change vs veh, TMEM50B / RFU, TAOK1 / Fold change vs veh, TAOK1 / RFU, ACBD3 / Fold change vs veh, ACBD3 / RFU, TMA16 / Fold change vs veh, TMA16 / RFU, RWDD3 / Fold change vs veh, RWDD3 / RFU, BCAT1 / Fold change vs veh, BCAT1 / RFU, EDEM3 / Fold change vs veh, EDEM3 / RFU, TMEM33 / Fold change vs veh, TMEM33 / RFU, WDR75 / Fold change vs veh, WDR75 / RFU, AHCTF1 / Fold change vs veh, AHCTF1 / RFU, TFRC / Fold change vs veh, TFRC / RFU, ZDHHC17 / Fold change vs veh, ZDHHC17 / RFU, NOM1 / Fold change vs veh, NOM1 / RFU, ARL8B / Fold change vs veh, ARL8B / RFU, ZBTB11 / Fold change vs veh, ZBTB11 / RFU, TAMM41 / Fold change vs veh, TAMM41 / RFU, KIAA1704 /// LOC100996395 / Fold change vs veh, KIAA1704 /// LOC100996395 / RFU, ING1 / Fold change vs veh, ING1 / RFU, TRMT61B / Fold change vs veh, TRMT61B / RFU, FUBP3 / Fold change vs veh, FUBP3 / RFU, TP53 / Fold change vs veh, TP53 / RFU, TNKS2 / Fold change vs veh, TNKS2 / RFU, ZFP14 / Fold change vs veh, ZFP14 / RFU, ACTR2 / Fold change vs veh, ACTR2 / RFU, PPP3R1 / Fold change vs veh, PPP3R1 / RFU, PIK3R1 / Fold change vs veh, PIK3R1 / RFU, HNRNPA1 / Fold change vs veh, HNRNPA1 / RFU, RNF170 / Fold change vs veh, RNF170 / RFU, ZNF28 / Fold change vs veh, ZNF28 / RFU, RNGTT / Fold change vs veh, RNGTT / RFU, OGT / Fold change vs veh, OGT / RFU, BRD1 / Fold change vs veh, BRD1 / RFU, MARS / Fold change vs veh, MARS / RFU, ZNF655 / Fold change vs veh, ZNF655 / RFU, FAHD1 / Fold change vs veh, FAHD1 / RFU, BDP1 / Fold change vs veh, BDP1 / RFU, LRRCC1 / Fold change vs veh, LRRCC1 / RFU, ARID1A / Fold change vs veh, ARID1A / RFU, ZNF146 / Fold change vs veh, ZNF146 / RFU, ZNF330 / Fold change vs veh, ZNF330 / RFU, GPN3 / Fold change vs veh, GPN3 / RFU, C9orf123 / Fold change vs veh, C9orf123 / RFU, N4BP2L2 / Fold change vs veh, N4BP2L2 / RFU, ARFIP1 / Fold change vs veh, ARFIP1 / RFU, FAM179B / Fold change vs veh, FAM179B / RFU, BCL10 / Fold change vs veh, BCL10 / RFU, UHRF1BP1L / Fold change vs veh, UHRF1BP1L / RFU, BET1 / Fold change vs veh, BET1 / RFU, CNOT2 / Fold change vs veh, CNOT2 / RFU, ZNF268 / Fold change vs veh, ZNF268 / Fold change vs veh, ZNF507 / RFU, DGCR2 / Fold change vs veh, DGCR2 / RFU, WDSUB1 / Fold change vs veh, WDSUB1 / Fold change vs veh, HSP90B1 /// MIR3652 / RFU, ADSS / Fold change vs veh, ADSS / RFU, GK / Fold change vs veh, GK / RFU, ZNF148 / Fold change vs veh, ZNF148 / RFU, TAF9 / Fold change vs veh, TAF9 / RFU, SLC1A5 / Fold change vs veh, SLC1A5 / RFU, SLMO2 / Fold change vs veh, SLMO2 / RFU, ABCC4 / Fold change vs veh, ABCC4 / RFU, LOC101060439 /// RAP1B / Fold change vs veh, LOC101060439 /// RAP1B / RFU, RFX7 / Fold change vs veh, RFX7 / RFU, GTPBP10 / Fold change vs veh, GTPBP10 / RFU, CNEP1R1 / Fold change vs veh, CNEP1R1 / RFU, BIVM-ERCC5 /// ERCC5 / Fold change vs veh, BIVM-ERCC5 /// ERCC5 / RFU, ILF3 / Fold change vs veh, ILF3 / RFU 11762660_at / Fold change /veh 11762660_at / RFU VCAN (11757783_s_at) / Fold change /veh VCAN (11757783_s_at) / RFU DDX43 (11728927_at) / Fold change /veh DDX43 (11728927_at) / RFU KRT8 (11758188_x_at) / Fold change /veh KRT8 (11758188_x_at) / RFU NKD1 (11759106_at) / Fold change /veh NKD1 (11759106_at) / RFU SRD5A1 (11742802_a_at) / Fold change /veh SRD5A1 (11742802_a_at) / RFU TPSAB1 /// TPSB2 (11721975_s_at) / Fold change /veh TPSAB1 /// TPSB2 (11721975_s_at) / RFU GSTM3 (11746129_a_at) / Fold change /veh GSTM3 (11746129_a_at) / RFU IL23R (11737362_x_at) / Fold change /veh IL23R (11737362_x_at) / RFU TMEM51 (11727254_a_at) / Fold change /veh TMEM51 (11727254_a_at) / RFU PIWIL2 (11732686_x_at) / Fold change /veh PIWIL2 (11732686_x_at) / RFU ORM1 (11744905_x_at) / Fold change /veh ORM1 (11744905_x_at) / RFU CCDC152 (11743942_at) / Fold change /veh CCDC152 (11743942_at) / RFU ECM1 (11717891_a_at) / Fold change /veh ECM1 (11717891_a_at) / RFU IL23R (11748794_a_at) / Fold change /veh IL23R (11748794_a_at) / RFU TNFAIP8L3 (11732012_x_at) / Fold change /veh TNFAIP8L3 (11732012_x_at) / RFU MBOAT4 (11741988_at) / Fold change /veh MBOAT4 (11741988_at) / RFU 11764193_at / Fold change /veh 11764193_at / RFU TMEM53 (11763286_at) / Fold change /veh TMEM53 (11763286_at) / RFU MAGEB2 (11727129_at) / Fold change /veh MAGEB2 (11727129_at) / RFU TMEM200A (11744735_a_at) / Fold change /veh TMEM200A (11744735_a_at) / RFU CCDC152 (11751479_a_at) / Fold change /veh CCDC152 (11751479_a_at) / RFU FAM211A (11726209_a_at) / Fold change /veh FAM211A (11726209_a_at) / RFU RGS16 (11746705_a_at) / Fold change /veh RGS16 (11746705_a_at) / RFU VCAN (11755009_s_at) / Fold change /veh VCAN (11755009_s_at) / RFU RHOB (11743442_s_at) / Fold change /veh RHOB (11743442_s_at) / RFU RGS16 (11720943_a_at) / Fold change /veh RGS16 (11720943_a_at) / RFU RGS16 (11720944_at) / Fold change /veh RGS16 (11720944_at) / RFU, VPS4B / Fold change vs veh, VPS4B / RFU, CREB1 / Fold change vs veh, CREB1 / RFU, DNAJC13 / Fold change vs veh, DNAJC13 / RFU, GNAQ / Fold change vs veh, GNAQ / RFU, CDK5R1 / Fold change vs veh, CDK5R1 / RFU, ZRANB3 / Fold change vs veh, ZRANB3 / RFU, CUL4A / Fold change vs veh, CUL4A / RFU, CCNY / Fold change vs veh, CCNY / RFU, UFL1 / Fold change vs veh, UFL1 / RFU, COG3 / Fold change vs veh, COG3 / RFU, DIAPH2 / Fold change vs veh, DIAPH2 / RFU, SKA2 / Fold change vs veh, SKA2 / RFU, AFF3 / Fold change vs veh, AFF3 / RFU, LMF1 / Fold change vs veh, LMF1 / RFU, IPO11 / Fold change vs veh, IPO11 / RFU, DFFB / Fold change vs veh, DFFB / RFU, FOXP1 / Fold change vs veh, FOXP1 / RFU, CARD8 / Fold change vs veh, CARD8 / RFU, STRN3 / Fold change vs veh, STRN3 / RFU, ADK / Fold change vs veh, ADK / RFU, RASSF2 / Fold change vs veh, RASSF2 / RFU, WIPF1 / Fold change vs veh, WIPF1 / RFU, LARP1B / Fold change vs veh, LARP1B / RFU, RASA1 / Fold change vs veh, RASA1 / RFU, RB1 / Fold change vs veh, RB1 / RFU, PPFIA1 / Fold change vs veh, PPFIA1 / RFU, MAT2A / Fold change vs veh, MAT2A / RFU, CCT5 / Fold change vs veh, CCT5 / RFU, WDR92 / Fold change vs veh, WDR92 / RFU, CUX1 / Fold change vs veh, CUX1 / RFU, TTC7A / Fold change vs veh, TTC7A / RFU, TMEM135 / Fold change vs veh, TMEM135 / RFU, DEPTOR / Fold change vs veh, DEPTOR / RFU, CPM / Fold change vs veh, CPM / RFU, DNAJB6 / Fold change vs veh, DNAJB6 / RFU, CACNA2D3 / Fold change vs veh, CACNA2D3 / RFU, DTX4 / Fold change vs veh, DTX4 / RFU, TFCP2 / Fold change vs veh, TFCP2 / RFU, GMCL1 /// GMCL1P1 / Fold change vs veh, GMCL1 /// GMCL1P1 / RFU, AEBP2 / Fold change vs veh, AEBP2 / RFU, SNHG1 /// SNORD22 /// SNORD25 /// SNORD26 /// SNORD27 /// SNORD28 /// SNORD29 /// SNORD31 / Fold change vs veh, SNHG1 /// SNORD22 /// SNORD25 /// SNORD26 /// SNORD27 /// SNORD28 /// SNORD29 /// SNORD31 / Fold change (Aza/veh), C12orf56 (ProbeSet 11735607_a_at) / Fold change (ACY-1035/veh), C12orf56 (ProbeSet 11735607_a_at) / Fold change (Aza/veh), FGFR1OP (ProbeSet 11751329_s_at) / Fold change (ACY-1035/veh), FGFR1OP (ProbeSet 11751329_s_at) / Fold change (Aza/veh), VPS36 (ProbeSet 11739960_a_at) / Fold change (ACY-1035/veh), VPS36 (ProbeSet 11739960_a_at) / RFU SYPL1 (11715823_x_at) / Fold change /veh SYPL1 (11715823_x_at) / RFU IGFBP7 (11715501_s_at) / Fold change /veh IGFBP7 (11715501_s_at) / RFU REEP3 (11722064_at) / Fold change /veh REEP3 (11722064_at) / RFU IGLL1 (11728026_x_at) / Fold change /veh IGLL1 (11728026_x_at): dose or concentration left out as unconfirmed
Settings: MV-4-11 cells, 48 hours

Structure (SMILES): Nc1ccc(-c2cccs2)cc1NC(=O)c1ccc2c(c1)cc(C1CC1)n2CCN1CCOCC1 [ACY-1035]
- RFU KRT8 (11758188_x_at): 20.03 RFU

From PMC5218480 (PLoS ONE, 2017)
